Here are results for two compounds from US20250354993A1, “METHODS OF TREATING AND DIAGNOSING LUNG CANCER” (Yeda Research and Development Co. Ltd., priority 2019, published 2025).

The test system of experiment [1] is PSME4. Put plainly: Western blot of A549 cells treated with mizoribine. It is filed as cell-based. The following applies: purine synthesis blocked using mizoribine, FIG. 26B. Here is the method: FIG. 26A-B. PSME4 expression correlates with increased Pyrimidine and decreased Purine metabolites. (A) The log 2 fold change in abundance of cellar metabolites in PSME4 high or low expressing cell lines (x axis) is plotted against the significance of the change. […] (B) A549 cells were treated with mizoribine for the time indicated and then separated by SDS-PAGE and analyzed by Western blot probed with the following antibodies: PSME4, LMP7 (PSMB8), PSMB10, pana (recognized all PSMA subunits), and β actin. Cell Culture and Treatments: A549 cells were grown in DMEM supplemented with 10% fetal bovine serum, 1% Penicillin/streptomycin and L-glutamine (2 mM) (Biological industries) at 37° C. with 5% CO2. Cells were treated with 400 U*mL−1 TNFαand/or 200 U*mL-1 IFNγ (peprotech) for the indicated amount of time. Antibodies for Western blotting, immunoprecipitation and immunohistochemistry: Primary antibodies to the following were used: PSMA1 (hybridoma). PANα (PSMA1-7; Enzo, BML-PW8195-0025), PSME4 (Millipore Sigma HPA060922 and Proteintech 18799-1-AP), LMP7 (Cell signaling 13635), PSMB10 (Thermo Fisher PAS19146) and β-Actin (Abcam ab170325) The following secondary antibodies were used: goat anti-mouse HRP (115-035-003) and goat anti-rabbit HRP (111-035-003) (Jackson Labs).

Experiment [2] concerns proteasome. Put plainly: Proteasome Cleavage Reporter Assay in A549 active cell extract. It counts as biochemical. Here is the method:
FIGS. 33A-D Active cell extract was prepared from A549 lung cancer cells, cells treated with TNFα and IFNγ (TI) and cells treated with TI and recombinant PA200. As a control, MG132 proteasome inhibitor was added. The extracts were then incubated with LLVY-AMC (SEQ ID NO: 1) (A) or PAL-AMC (SEQ ID NO: 2) (B) for 3.5 hours and the relative fluorescence units (RFU) was measured every minute. The RFU for each condition using LLVY-AMC (SEQ ID NO: 1) (C) or PAL-AMC (SEQ ID NO: 2) (D) is shown at 1.5 and 3.5 hours across the different repeats of the experiment.
FIGS. 34A-D. Active cell extract was prepared from A549 lung cancer cells and cells treated with TNFα and IFNγ (TI). To each of these PA200 was added at a concentration of 4.7 nm (1:1) or 0.47 nm (1:10). As a control, MG132 proteasome inhibitor was added. The extracts were then incubated with LLE-AMC (SEQ ID NO: 3) (A), NPND-AMC (SEQ ID NO: 4) (B), LLVY-AMC (SEQ ID NO: 1) (C) or LLE-BNA (SEQ ID NO: 5) (D) for 3.5 hours and the relative fluorescence units (RFU) was measured every minute.
Proteasome Cleavage Reporter Assay: A549 cells, stimulated with TNFα and IFNγ for the indicated times, were collected and flash frozen. Frozen cells were re-suspended in lysis buffer (25 mM sucrose, 50 mM TRIS pH 7.4, 5 mM MgCl2, 0.5 mM EDTA, 2 mM ATP, 1 mM DTT). Lysates were passed 10 times through a 27 G needle, incubated on ice for 15 min and the centrifuged at 21130rcf for 10 min. Protein concentrations were measured using the Coomassie Plus (Bradford) Assay Kit (Pierce, ThermoFisher Scientific). […] of cellular lysate was incubated with 0.1 mM suc-LLVY-AMC (SEQ ID NO: 1), ac-PAL-AMC (SEQ ID NO: 2), Z-LLE-AMC (SEQ ID NO: 3) (Biotest), ac-NPND-AMC (SEQ ID NO: 4) and Z-LLE-βNA (SEQ ID NO: 5) (bachem) as per protocol and fluorescence levels were measured over time using a BioTek Synergy H1 plate reader (Ex: 360 nm, Em: 460 nm). The background protease activity was determined for each condition from an identically prepared sample with the addition of Mg132 proteasome inhibitor (0.04 mM; Calbiochem). […]

[3] abbreviates: A549 extract, PA200 added at 4.7 nm (1:1) or 0.47 nm (1:10), FIG. 34A-D.

Consider `NC(=O)c1ncn([C@@H]2O[C@H](CO)[C@@H](O)[C@H]2O)c1O` [mizoribine], for which the PSME4 expression entry in experiment [1] is “decrease in PSME4 expression”.
Consider “recombinant PSME4: recombinant Proteasome activator complex subunit 4 (PA200) added to A549 cell extract”, for which the “effect on the TNFα and IFNγ induced increase in proteasome cleavage” value in experiment [2] (A549 cells treated with TNFα and IFNγ plus recombinant PA200, LLVY-AMC or PAL-AMC, FIG. 33A-D) is on record as “partially reduced”. For the same compound, in experiment [2] (setting [3]), the “chymotryptic cleavage (suc-LLVY-AMC)” value is “reduction of activity” and the “constitutive proteasome caspase like activity (NPND-AMC + LLE-βNA)” value was “induces the activity”.
